Test results from patent publication US20220349876A1, “USE OF DKK1 INHIBITOR IN PREVENTION AND/OR TREATMENT OF TUMOR CACHEXIA AND DISEASES ASSOCIATED WITH DIABETES” (SHANGHAI DONGTSU BIOSCIENCES CO., LTD., priority 2019, published 2022).
Entries after “also recorded” stand apart in the source; their conditions may differ.

Legend:
wild-type mice heart = assay: Local injection of Dkk1 protein into the heart combined with MDC or BIM-46187; assay type: in vivo, mouse
Experimental: In the experiment of local injection of Dkk1 purified protein into the heart combined with MDC intervention, 10-week-old wild-type male mice were selected, the left chest was depilated, and intraperitoneal injection of MDC (diluted in sterile PBS, 10 mg/kg) or the corresponding volume of DMSO (diluted in sterile PBS) and injected at the same time every day thereafter. After 1 h of MDC intervention, cardiac Dkk1 protein injection was performed. The mice were given continuous inhalation anesthesia with 1% isoflurane and oxygenated with a ventilator, and then the fourth intercostal space near the sternum was opened to expose the heart. Using a 200 μl microsyringe, Dkk1 (10 μg of Dkk1 per heart, dissolved in 30 μl PBS) or an equal volume of PBS was injected locally at three sites in the heart. Of these, two sites are on the border around the left ventricle, and one site enters the myocardium of the left ventricle. After the injection, the wound was sutured, the anesthesia was removed, and the mice were awake. After MDC was continuously intervened for 2 days, the mice were anesthetized and the materials were collected.
In addition to injecting Dkk1 protein alone into the heart, we also need to perform experiments of local injection of Dkk1 combined with BIM-46187 into mouse hearts. According to the experimental grouping, it was divided into cardiac injections of four different solutions, including PBS, Dkk1, BIM-46187, and a mixture of Dkk1 and BIM-46187. The dosage of Dkk1 per heart is 10 μg, and the dosage of BIM-46187 is 2.4 ng, diluted with 30 μl PBS and then injected into the heart. The specific operation steps are the same as above. After the injection, the wound was sutured, the anesthesia was removed, and the mice were awake. Two days after the injection, the mice were anesthetized and the materials were collected.

β-arrestin1/2 = β-arrestin1/2 translocation in HUVEC cells (Western blot); assay type: cell-based; details: BIM-46187 pretreatment 1 μM for 30 min
Experimental: (5) Add 100 μl (cell) or 200 μl (tissue) A solution to each sample, and resuspend the cell pellet with a pipette to completely disperse the pellet. The tissue pellet should be fully homogenized on ice with a homogenizer, and the ice bath should be used for 15 min.
(10) Add 50 μl (cells) or 100 μl (tissue) B solution to each sample, resuspend the pellet in Vortex at the highest speed for 10 s, ice bath for 10 min, and repeat twice to fully extract membrane proteins.
(§1) Protein electrophoresis gels are double-layered gels, including an upper stacking gel and a lower separating gel. The concentration of the stacking gel is 5%, and the concentration of the separating gel is determined according to the molecular weight of the target protein. In this study, large molecular weight proteins (LRP5/6, β-catenin, β-arrestin1/2) used 8%-5% double-layer gel, and small molecular weight proteins (γH2AX, p53, p21, Bcl-2, Bax, Cleaved Caspase-3) used 12%-5% double-layer gel. In addition, the number of wells (10 wells or 15 wells) and thickness (1 mm or 1.5 mm) of the preparation gel were selected according to the number and volume of protein samples loaded. The gel formulation is shown in the experimental material section, and the preparation steps are as follows: […]

HUVEC cells = assay: γH2AX DNA damage response in HUVEC cells (Western blot); assay type: cell-based
Experimental: (2) The transfection system of a 3.5 cm petri dish was prepared as follows: 1 μl of siRNA Oligo/Red (concentration of the original solution was 20 μM) was added to an EP tube containing 250 μl of pure Opti-MEM and mixed, and 1.5 μl of RNAiMAX (transfection Reagent) was added to the flow tube containing 250 μl of pure Opti-MEM and mixed, and then all the liquid in the EP tube was added to the flow tube and mixed, and allowed to stand at room temperature for 15 min.
(3) The prepared transfection system was added to a 3.5 cm culture dish, and the cells were cultured for 24-48 h, then the samples were collected and the total cell protein was extracted, and the knockdown effect of the gene was identified by Western Blotting.
(3) Add 150 μl of total protein lysate to each cell sample to make the lysate fully contact with the cells, scrape off the cell lysate with a scraper, collect it into a pre-cooled EP tube, and take an ice bath for 15 min.
as §1

[1] = system: STZ-induced diabetic mice; assay: STZ-induced type 1 diabetes mouse model with insulin or MDC rescue; assay type: in vivo
Experimental: STZ-induced diabetes is a chemical modeling method for diabetes. Its full name is streptozotocin, which is a broad-spectrum antibiotic isolated from achromatic streptomycin. It can selectively damage islet 13 cells in a short period of time, causing 13 cell necrosis, resulting in varying degrees of blood insulin drop and blood sugar rise, resulting in insulin-dependent type 1 diabetes mellitus. […] Modelling criteria are non-fasting blood glucose values above 13.8 mM (250 mg/dl). The modeling steps are as follows: (4) According to the body weight, mice in the model group were injected intraperitoneally with 2% STZ-citric acid solution (160 mg/kg), and the mice in the control group were intraperitoneally injected with the corresponding volume of citrate buffer. 2 h after the injection, the mice were fed back. […] Specific steps are as follows: (3) According to the body weight, the insulin rescue group was subcutaneously injected with diluted insulin (1 U/kg/day), once a day at the same time for 7 consecutive days, and the control group was given a corresponding volume of normal saline. […] Body weight and random blood glucose were measured at different time points after injection. […] (1) Sample preparation: Store the freshly obtained mouse blood in an EDTA anticoagulation tube, stand at room temperature for 10 min, centrifuge at 1000 g for 15 min, and collect the supernatant, namely plasma. If it cannot be detected immediately, it should be subpackaged and stored at −80° C. to avoid repeated freezing. If precipitation occurs during storage, it should be fully thawed at room temperature before use, and centrifuged again.

LRP6 and Kremen2 = assay: Intramuscular injection of Dkk1, Western blot of membrane LRP6 and Kremen2; assay type: in vivo, mouse; details: simultaneous injection with Dkk1
Experimental: Wild-type mice and β-arrestin2+/−KO mice were injected into the left quadriceps (0.25 mg/kg) and an equal volume of PBS was injected into the right leg as controls. MDC (10 mg/kg), IGFBP-4/H95P (1.7 mg/kg) or PBS were injected in combination with Dkk1 as a control to observe the effects of drugs on Dkk1-induced signal transduction. After 48 hours, the mice were sacrificed, and the left and right quadriceps were taken to measure the […].
Membrane proteins were extracted according to the instructions of Membrane Protein Extraction Kit (Sangon Biotech, China). Western blot analysis omitted. Antibodies for WB analysis were purchased from Cell Signaling Technology and Proteintech.

CT26 tumor-bearing mice = assay: Tumor cachexia in CT26 tumor-bearing mice: tumor-free body weight, muscle weight, muscle membrane proteins; assay type: in vivo, mouse

## N[C@@H](CSSC[C@H](N)C(=O)N1CCn2cc(-c3ccccc3)nc2[C@@H]1CC1CCCCC1)C(=O)N1CCn2cc(-c3ccccc3)nc2[C@@H]1CC1CCCCC1 [BIM-46187]
wild-type mice heart; Dkk1 intracardiac injection with MDC or BIM-46187
  Dkk1-induced cardiac β-arrestin1/2 translocation: inhibited; also recorded: significantly prevent Dkk1 direct endocytosis of LRP5/6-induced cardiac β-arrestin1/2 translocation changes
wild-type mice heart; Dkk1 intracardiac injection with MDC pretreatment or combined with BIM-46187
  Dkk1-induced cardiac changes (LRP5/6, γH2AX, p53, p21): effectively inhibit Dkk1-induced cardiac injury; also recorded: significantly prevent
β-arrestin1/2
  Dkk1-induced translocation of β-arrestin1/2: able to prevent Dkk1-induced translocation of β-arrestin1/2
HUVEC cells; BIM-46187 pretreatment 1 μM, 30 min
  Dkk1-induced γH2AX activation: inhibited

## insulin
[1]; STZ diabetic mice
  blood 8-OHdG (ELISA): greatly attenuated
  blood glucose concentration: reduces STZ-induced blood glucose elevation; also recorded: decreased from the first day of treatment and remained at a low level
  body weight loss of diabetic mice: promoted the gradual recovery of the weight loss; also recorded: suppressed
[1]; STZ diabetic mice, daily insulin
  blood Dkk1 (ELISA): brought high blood Dkk1 concentrations back to basal levels; also recorded: at the basal level
[1]; STZ diabetic mice, heart
  cardiac p53, p21, Bax/Bcl-2 and Cleaved Caspase-3: greatly attenuated
  cardiac γH2AX: decrease in γH2AX signaling
  damage to myocardial structure (HE staining): prevented
  translocation of cardiac β-arrestin1/2 in diabetic hearts: able to reverse this translocation
[1]; STZ diabetic mice, heart, Western blot
  LRP5/6 on the cardiac membrane: started to be up-regulated
[1]; substance alone (FIG. 19G)
  translocation of insulin receptors on the cardiac membrane or in the plasma: does not induce translocation of insulin receptors

B1: IGFBP4/H95P: recombinant mutant IGFBP4/H95P protein, which lost its IGF-binding ability, can bind to LRP6 on the membrane and prevent Dkk1 signaling (protein, UniProt P22692 22-258, looked up, variant H95P)
Insulin-like growth …: DEAIHCPPCSEEKLARCRPPVGCEELVREPGCGCCATCALGLGMPCGVYTPRCGSGLRCYPPRGVEKPLHTLMPGQGVCMELAEIEAIQESLQPSDKDEGDHPNNSFSPCSAHDRRCLQKHFAKIRDRSTSGGKMKVNGAPREDARPVPQGSCQSELHRALERLAASQSRTHEDLYIIPIPNCDRNGNFHPKQCHPALDGQRGKCWCVDRKTGVKLPGGLEPKGELDCHQLADSFRE
LRP6 and Kremen2
  Dkk1-induced endocytosis / downregulation of membrane LRP6 and Kremen2: inhibit downregulation of membrane LRP6 expression induced by Dkk1
CT26 tumor-bearing mice; listed as IGFBP4
  loss of body weight and muscle weight: reverse tumor-induced loss of tumor-free body weight and muscle atrophy
CT26 tumor-bearing mice; listed as IGFBP-4/H95P
  loss of body weight and muscle weight: completely prevents the decrease in body weight and muscle weight

B2: LRP6N: soluble protein of the extracellular segment of LRP6 (LRP6 ectodomain) (protein, UniProt O75581 20-1370, looked up)
extracellular domain: APLLLYANRRDLRLVDATNGKENATIVVGGLEDAAAVDFVFSHGLIYWSDVSEEAIKRTEFNKTESVQNVVVSGLLSPDGLACDWLGEKLYWTDSETNRIEVSNLDGSLRKVLFWQELDQPRAIALDPSSGFMYWTDWGEVPKIERAGMDGSSRFIIINSEIYWPNGLTLDYEEQKLYWADAKLNFIHKSNLDGTNRQAVVKGSLPHPFALTLFEDILYWTDWSTHSILACNKYTGEGLREIHSDIFSPMDIHAFSQQRQPNATNPCGIDNGGCSHLCLMSPVKPFYQCACPTGVKLLENGKTCKDGATELLLLARRTDLRRISLDTPDFTDIVLQLEDIRHAIAIDYDPVEGYIYWTDDEVRAIRRSFIDGSGSQFVVTAQIAHPDGIAVDWVARNLYWTDTGTDRIEVTRLNGTMRKILISEDLEEPRAIVLDPMVGYMYWTDWGEIPKIERAALDGSDRVVLVNTSLGWPNGLALDYDEGKIYWGDAKTDKIEVMNTDGTGRRVLVEDKIPHIFGFTLLGDYVYWTDWQRRSIERVHKRSAEREVIIDQLPDLMGLKATNVHRVIGSNPCAEENGGCSHLCLYRPQGLRCACPIGFELISDMKTCIVPEAFLLFSRRADIRRISLETNNNNVAIPLTGVKEASALDFDVTDNRIYWTDISLKTISRAFMNGSALEHVVEFGLDYPEGMAVDWLGKNLYWADTGTNRIEVSKLDGQHRQVLVWKDLDSPRALALDPAEGFMYWTEWGGKPKIDRAAMDGSERTTLVPNVGRANGLTIDYAKRRLYWTDLDTNLIESSNMLGLNREVIADDLPHPFGLTQYQDYIYWTDWSRRSIERANKTSGQNRTIIQGHLDYVMDILVFHSSRQSGWNECASSNGHCSHLCLAVPVGGFVCGCPAHYSLNADNRTCSAPTTFLLFSQKSAINRMVIDEQQSPDIILPIHSLRNVRAIDYDPLDKQLYWIDSRQNMIRKAQEDGSQGFTVVVSSVPSQNLEIQPYDLSIDIYSRYIYWTCEATNVINVTRLDGRSVGVVLKGEQDRPRAVVVNPEKGYMYFTNLQERSPKIERAALDGTEREVLFFSGLSKPIALALDSRLGKLFWADSDLRRIESSDLSGANRIVLEDSNILQPVGLTVFENWLYWIDKQQQMIEKIDMTGREGRTKVQARIAQLSDIHAVKELNLQEYRQHPCAQDNGGCSHICLVKGDGTTRCSCPMHLVLLQDELSCGEPPTCSPQQFTCFTGEIDCIPVAWRCDGFTECEDHSDELNCPVCSESQFQCASGQCIDGALRCNGDANCQDKSDEKNCEVLCLIDQFRCANGQCIGKHKKCDHNVDCSDKSDELDCYPTEEPAPQA
modifications: extracellular domain
HUVEC cells; Dkk1 then H2O2 50 μM
  γH2AX signaling enhanced by H2O2 in the presence of Dkk1: significantly attenuated
HUVEC cells; H2O2 50 μM
  H2O2-activated γH2AX signaling in control and β-catenin-knockdown cells: no effect
HUVEC cells; H2O2 50 μM, LRP6N pretreatment
  γH2AX signaling in MESD knockdown cells enhanced by H2O2: significantly attenuats this change
  γH2AX signaling of LRP5/6 knockdown cells further activated by H2O2: significantly attenuated
HUVEC cells; H2O2 50 μM, without Dkk1
  H2O2-induced γH2AX activation: does not prevent H2O2-induced γH2AX activation
HUVEC cells; LRP6N pre-added to culture medium
  γH2AX upregulation induced by knockdown of LRP5/6: reverses cellular DNA damage induced by knockdown of LRP5/6; also recorded: significantly attenuated
HUVEC cells; no Dkk1, no H2O2
  γH2AX response by the substance itself: does not elicit γH2AX responses
HUVEC cells; pretreatment with MDC or LRP6N protein
  Dkk1-induced γH2AX activation: inhibits Dkk1-induced γH2AX activation
